Patent publication US12054560B2, “Bifunctional molecules recruiting antibodies and targeting cancer cells” (JIANGNAN UNIVERSITY, priority 2017, dated 2024)
Square brackets hold non-standard residues; d marks the D form. Primed or numbered codes have the meaning given here. Side chains are listed from the residue outwards. oligo‑glycol (n:2) = oligo-glycol tether (n=2) linking D-Lys(N3) to alkynyl rhamnose by click reaction; oligo‑glycol (n:5) = oligo-glycol tether (n=5) linking D-Lys(N3) to alkynyl rhamnose by click reaction; dLys(N3)′ = its azide, alkyne or alkene has reacted where a group follows in round brackets; rhamnose derivative = not defined here; click linkage = not defined here; pGlu = O=C1CC[C@@H](C(=O)O)N1

What was measured:
[1] = tested on: MCF7 cells (LHRH-R positive); test: Flow cytometry, recruitment of anti-Rha antibody on MCF7 cells; type: cell-based; conditions: 250 nM, anti-Rha antibody 20 μg/mL, FIG. 7
Experimental: (§1) Commercialized MCF7 cells (LHRH-R positive) and UCI-107(LHRH-R negative) were grown in DMEM supplemented with 10% FBS, 1% penicillin-streptomycin. All cells were cultured at 37° C. in a 5% CO2 humidified atmosphere.
(1) Cells were cultured and detached with trypsin-EDTA and then resuspended to 1.0×10^5 cells/mL. Forty thousand of these cells were added into sterile centrifuge tubes. (2) LHRH, LHRH-Rha, LHRH-TEG-Rha and LHRH-HEG-Rha compounds were added at a final concentration of 250 nM. For the blank group (Negative), the corresponding volume of PBS was added. And anti-Rha antibody at a final concentration of 20 μg/mL in all groups. These cells were incubated on ice for 60 min, washed with flow cytometry buffer. And fluorescent secondary antibody was immediately added in all groups. These cells were incubated on ice for 30 min, (3) washed with flow cytometry buffer and then analyzed using an Accuri C6 flow cytometer.

[2] = tested on: MCF7 cells (LHRH-R positive); test: ADCC experiment on MCF7 cells; type: cell-based; conditions: MCF-7 cells, 250 nM, anti-Rha antibody, PBMC, LDH method, FIG. 7
Experimental: as §1
(1) MCF7 or UCI-107 cells were seeded in 96-well plates at a concentration of 10,000 cells/well and then treated with LHRH, LHRH-Rha, LHRH-TEG-Rha and LHRH-HEG-Rha at a final concentration of 250 nM and a certain concentration of anti-Rha antibody. (2) Following the incubation period, freshly extracted PBMC cells were added at a certain effective target ratio, (3) and the supernatant was treated by centrifugation for minutes, using LDH method to measure the cytotoxicity.

[3] = tested on: MCF7 cells (LHRH-R positive); test: CDC experiment on MCF7 cells; type: cell-based; conditions: MCF-7 cells, 250 nM, anti-Rha antibody, 10% rabbit complement, cck8 kit, FIG. 7
Experimental: as §1
(1) MCF7 cells or UCI-107 were seeded in 96-well plates at a concentration of 5000 cells/well and then treated with LHRH, LHRH-Rha, LHRH-TEG-Rha and LHRH-HEG-Rha at a final concentration of 250 nM and a certain concentration of anti-Rha antibody. Following the incubation at 37° C. for 2 h, next, diluted rabbit complement at a final concentration of 10% were added to each well. Following the incubation at 37° C. for 1 h, the results detected using cck8 kit.

HER2 = target: T1, HER2 (UniProt P04626 23-1255, limits assumed); test: flow cytometry on SKBR3 cells at 250 nM, detected with Alexa 488 rabbit anti-Rha IgG
T1 construct: whole, on cells; also called human epidermal growth factor receptor 2; HER2 (on SKBR3 cells)

LHRH-R = target: T2, LHRH-R (UniProt P30968 1-328); test: cell-based or functional assay
T2 sequence (looked up): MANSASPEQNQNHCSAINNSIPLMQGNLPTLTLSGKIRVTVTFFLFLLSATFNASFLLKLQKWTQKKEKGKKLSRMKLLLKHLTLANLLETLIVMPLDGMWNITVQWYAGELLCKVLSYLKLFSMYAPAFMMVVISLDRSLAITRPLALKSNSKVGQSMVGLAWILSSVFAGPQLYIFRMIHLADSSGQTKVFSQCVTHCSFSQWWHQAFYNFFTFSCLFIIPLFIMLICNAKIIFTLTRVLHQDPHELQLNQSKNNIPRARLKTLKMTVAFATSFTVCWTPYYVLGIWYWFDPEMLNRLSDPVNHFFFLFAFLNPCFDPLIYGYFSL

For “LHRH-HEG-Rha: [6-D-Lys(N3)]-LHRH peptide click-coupled to rhamnose derivative, oligo-glycol linker n=5 ([pGlu]HWSY[dLys(N3)′]([click linkage-oligo‑glycol n:5-rhamnose derivative])LRPG-NH2; reading uncertain; also: rhamnose derivative attached via click (triazole) to D-Lys6, oligo-glycol n=5, structure in drawing)”, the “recruitment of anti-Rha antibodies to MCF-7 tumor cells” value (“recruitment of anti-Rha antibodies” below) [1] was “could recruit anti-Rha antibodies”, the ADCC-mediated killing rate [2] was “about 33%” and the CDC-mediated killing rate [3] was “about 26%”.

In the case of “LHRH-Rha: [6-D-Lys(N3)]-LHRH peptide click-coupled to rhamnose derivative, oligo-glycol linker n=0 ([pGlu]HWSYKLRPG-NH2; not fully specified (residue 6); printed as Glp-His-Trp-Ser-Tyr-D-Lys(N3)-Leu-Arg-Pro-Gly-NH2; also: rhamnose derivative attached via click (triazole) to D-Lys6, oligo-glycol n=0, structure in drawing)”, the “recruitment of anti-Rha antibodies” value [1] is reported as “could recruit anti-Rha antibodies”, the ADCC-mediated killing rate [2] is reported as “about 33%” and the CDC-mediated killing rate [3] is reported as “about 26%”.

In the case of “LHRH-TEG-Rha: [6-D-Lys(N3)]-LHRH peptide click-coupled to rhamnose derivative, oligo-glycol linker n=2 ([pGlu]HWSY[dLys(N3)′]([click linkage-oligo‑glycol n:2-rhamnose derivative])LRPG-NH2; reading uncertain; also: rhamnose derivative attached via click (triazole) to D-Lys6, oligo-glycol n=2, structure in drawing)”, the “recruitment of anti-Rha antibodies” value [1] is reported as “could recruit anti-Rha antibodies”, the ADCC-mediated killing rate [2] is reported as “about 33%” and the CDC-mediated killing rate [3] is reported as “about 26%”.

B1: C7b-triEGRha (VHH)
VHH: QVQLVQSGGGLVQAGGSLRLSCAASGRTFSSYAMAWFRQAPGKEREFVAAISWSGANIYVADSVKGRFTISRDNAKDTVYLQMNSLKPEDTAVYYCAVKLGFAPVEERQYDYWGQGTQVTVSS
modifications: C-terminal LPETGG motif ligated by sortase A (enhanced SrtA) to GGG-triEGRha (triethylene glycol-rhamnose)
notes: also called Rha conjugated C7b
B1: binds (HER2).

B2: C7b-hexEGRha (VHH)
VHH: QVQLVQSGGGLVQAGGSLRLSCAASGRTFSSYAMAWFRQAPGKEREFVAAISWSGANIYVADSVKGRFTISRDNAKDTVYLQMNSLKPEDTAVYYCAVKLGFAPVEERQYDYWGQGTQVTVSS
modifications: C-terminal LPETGG motif ligated by sortase A (enhanced SrtA) to GGG-hexEGRha (hexaethylene glycol-rhamnose)
notes: as for B1
B2: binds (HER2).

B3: LHRH-TEG-Rha (peptide)
peptide: [pGlu]HWSY[dLys(N3)′]([oligo‑glycol (n:2)-rhamnose])LRPG-NH2
Work on B3 yielded an ADCC-mediated killing rate (LHRH-R) of about 33% and a CDC-mediated killing rate (LHRH-R) of about 26%.

B4: LHRH-Rha (peptide)
peptide: [pGlu]HWSY[dLys(N3)′](rhamnose)LRPG-NH2
With B4 the ADCC-mediated killing rate (LHRH-R) was about 33% and the CDC-mediated killing rate (LHRH-R) was about 26%.

B5: LHRH-HEG-Rha (peptide)
peptide: [pGlu]HWSY[dLys(N3)′]([oligo‑glycol (n:5)-rhamnose])LRPG-NH2
Molecule B5 has an ADCC-mediated killing rate (LHRH-R) of about 33% and a CDC-mediated killing rate (LHRH-R) of about 26%.
